For orientation: melting point means the temperature of the solid-liquid transition. A word on the IC50: it is the concentration needed to halve the response being measured. The term Ki denotes a measure of affinity in units of concentration, obtained from inhibition or displacement. A low value points to higher affinity.

The results in this text go back to patent publication US8278345B2, “Inhibitors of glutaminyl cyclase” (Probiodrug AG, priority 2006, dated 2012).

In one data set the target is hQC (Homo sapiens, UniProt Q16769). The experiment in a line: Inhibitor assay for glutaminyl cyclase activity (fluorometric, H-Gln-βNA / H-Gln-AMC). Format: biochemical. The method, boiled down:
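Coupled fluorometric assay at 30 °C with pyroglutamyl aminopeptidase, in Tris/HCl pH 8.0 with EDTA, substrate H-Gln-βNA (0.2 mM; ex/em 320/410 nm) or H-Gln-AMC (ex/em 380/460 nm), initiated by QC. Screening: 4 mM inhibitor, substrate at 1 KM; Ki from progress curves fitted to competitive inhibition.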

The mark [1] stands for this setting: compound from preparative synthesis, purified, read-out: IC50 hQC.
Where [2] appears, read: compound from preparative synthesis, purified.

Each structure is given as a SMILES string. Where two headings read alike, the source gives them in different places.

hQC, sequence (Q16769 29-361): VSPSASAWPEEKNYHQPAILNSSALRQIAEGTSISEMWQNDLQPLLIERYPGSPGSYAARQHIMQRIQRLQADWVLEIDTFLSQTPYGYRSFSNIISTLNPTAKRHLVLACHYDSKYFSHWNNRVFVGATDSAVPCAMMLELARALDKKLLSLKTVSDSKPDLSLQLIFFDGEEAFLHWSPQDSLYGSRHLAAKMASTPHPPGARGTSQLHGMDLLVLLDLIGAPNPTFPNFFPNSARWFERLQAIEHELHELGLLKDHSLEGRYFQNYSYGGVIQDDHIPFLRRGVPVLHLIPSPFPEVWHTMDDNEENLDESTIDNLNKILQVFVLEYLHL

For the molecule `CC(=O)C1=C(O)C(=O)N(c2ccc3[nH]cnc3c2)C1c1ccc2cccc(O)c2n1` (centres unmarked) [Compound 277, 4-Acetyl-1-(1H-benzoimidazol-5-yl)-3-hydroxy-5-(8-hydroxy-quinolin-2-yl)-1,5-dihydro-pyrrol-2-one], the melting point came out at 174 °C. Moreover, the IC50 at hQC (setting [1]) is 5.8 nM. Moreover, the IC50 on hQC (read-out: IC50) was determined as 4 nM.
Consider `O=C(C1=C(O)C(=O)N(c2ccc3[nH]cnc3c2)C1c1ccc2nsnc2c1)C1CC1` (centres unmarked) [Compound 287, 1-(1H-Benzoimidazol-5-yl)-5-benzo[c][1,2,5]thiadiazol-5-yl-4-cyclopropanecarbonyl-3-hydroxy-1,5-dihydro-pyrrol-2-one], for which the melting point was 270 °C (dec.). For the same molecule, on hQC (setting [1]), the IC50 came out at 0.7 nM. For the same molecule, the IC50 at hQC (read-out: IC50) was found to be 4 nM.
In turn, `CC(=O)C1=C(O)C(=O)N(c2ccc3[nH]cnc3c2)C1c1cccc(F)c1F` (centres unmarked) [Compound 350, 4-Acetyl-1-(1H-benzoimidazol-5-yl)-5-(2,3-difluoro-phenyl)-3-hydroxy-1,5-dihydro-pyrrol-2-one] displayed a melting point of 135 °C. Further, on hQC (setting [1]), the IC50 was 30.3 nM. Besides, the IC50 on hQC (read-out: IC50) was found to be 4 nM.
Molecule `CCCC(=O)C1=C(O)C(=O)N(c2ccc3[nH]cnc3c2)C1c1ccc(-c2ccccn2)cc1` (centres unmarked) [Compound 387, 1-(1H-Benzoimidazol-5-yl)-4-butyryl-3-hydroxy-5-(4-pyridin-2-yl-phenyl)-1,5-dihydro-pyrrol-2-one] came in with a melting point of 294 °C. Moreover, at hQC (setting [1]), the IC50 is 1.2 nM. Also, the IC50 at hQC (read-out: IC50) was 4 nM.
`CC(=O)C1=C(O)C(=O)N(c2ccc3[nH]cnc3c2)C1c1ccc2nonc2c1` (centres unmarked) [Compound 403, 4-Acetyl-1-(1H-benzoimidazol-5-yl)-5-benzo[c][1,2,5]oxadiazol-5-yl-3-hydroxy-1,5-dihydro-pyrrol-2-one] had a melting point of 175 °C. Moreover, the IC50 at hQC (setting [1]) was determined as 28.3 nM. The IC50 at hQC (read-out: IC50) is 4 nM.
`O=C1C(O)=C(c2ccccc2)C(c2cnc3ccccc3c2)N1c1ccc2[nH]cnc2c1` (centres unmarked) [Compound 420, 1-(1H-Benzoimidazol-5-yl)-3-hydroxy-4-phenyl-5-quinolin-3-yl-1,5-dihydro-pyrrol-2-one]: the melting point came out at 108 °C. Also, on hQC (setting [1]), the IC50 was 32 nM. Besides, on hQC (read-out: IC50), the IC50 worked out at 4 nM.
In turn, `CCCC(=O)C1=C(O)C(=O)N(c2ccc3[nH]cnc3c2)C1c1ccc2nonc2c1` (centres unmarked) [Compound 421, 1-(1H-Benzoimidazol-5-yl)-5-benzo[c][1,2,5]oxadiazol-5-yl-4-butyryl-3-hydroxy-1,5-dihydro-pyrrol-2-one] displayed a melting point of 266 °C. In addition, at hQC (setting [1]), the IC50 worked out at 246 nM. For the same molecule, the IC50 on hQC (read-out: IC50) came to 40 nM.
For `O=C(C1=C(O)C(=O)N(c2ccc3[nH]cnc3c2)C1c1ccc(Cl)c(C(F)(F)F)c1)C1CCCCC1` (centres unmarked) [Compound 454, 1-(1H-Benzoimidazol-5-yl)-5-(4-chloro-3-trifluoromethyl-phenyl)-4-cyclohexanecarbonyl-3-hydroxy-1,5-dihydro-pyrrol-2-one], the IC50 on hQC (read-out: IC50) worked out at 2560 nM.
Take `CC(C)CC(=O)C1=C(O)C(=O)N(c2ccc3[nH]cnc3c2)C1c1ccc(-c2ccccn2)cc1` (centres unmarked) [Compound 455, 1-(1H-Benzoimidazol-5-yl)-3-hydroxy-4-(3-methyl-butyryl)-5-(4-pyridin-2-yl-phenyl)-1,5-dihydro-pyrrol-2-one]: the 50% inhibitory concentration (IC50) on hQC (read-out: IC50) was determined as 130 nM.
For the molecule `CCCCCC1=C(O)C(=O)N(c2ccc3[nH]cnc3c2)C1c1ccco1` (centres unmarked) [Compound 456, 1-(1H-Benzoimidazol-5-yl)-5-furan-2-yl-3-hydroxy-4-pentyl-1,5-dihydro-pyrrol-2-one], the IC50 on hQC (read-out: IC50) amounted to 4630 nM.
Still for that read-out and setting: for `O=C1C(O)=C(c2c[nH]c3ccccc23)C(c2ccc3nsnc3c2)N1c1ccc2[nH]cnc2c1` (centres unmarked) [Compound 457] the value was 4 nM; for `Cc1cccc(C2C(C(=O)CC(C)C)=C(O)C(=O)N2c2ccc3[nH]cnc3c2)c1` (centres unmarked) [Compound 458, 1-(1H-Benzoimidazol-5-yl)-3-hydroxy-4-(3-methyl-butyryl)-5-m-tolyl-1,5-dihydro-pyrrol-2-one], 580 nM.
For the molecule `Cc1ccc(C2C(C(=O)c3ccc(Cl)cc3)=C(O)C(=O)N2c2ccc3[nH]cnc3c2)o1` (centres unmarked) [Compound 459, 1-(1H-Benzoimidazol-5-yl)-4-(4-chloro-benzoyl)-3-hydroxy-5-(5-methyl-furan-2-yl)-1,5-dihydro-pyrrol-2-one], on hQC (read-out: IC50), the IC50 was 2110 nM.
Turning to `CC1=C(O)C(=O)N(c2ccc3[nH]cnc3c2)C1c1ccc(Cl)c(C(F)(F)F)c1` (centres unmarked) [Compound 460, 1-(1H-Benzoimidazol-5-yl)-5-(4-chloro-3-trifluoromethyl-phenyl)-3-hydroxy-4-methyl-1,5-dihydro-pyrrol-2-one], on hQC (read-out: IC50), the IC50 stood at 9850 nM.
On to `CC(C)CC(=O)C1=C(O)C(=O)N(c2ccc3[nH]cnc3c2)C1c1c[nH]cn1` (centres unmarked) [Compound 461, 1-(1H-Benzoimidazol-5-yl)-3-hydroxy-5-(1H-imidazol-4-yl)-4-(3-methyl-butyryl)-1,5-dihydro-pyrrol-2-one], for which the IC50 at hQC (read-out: IC50) was 4000 nM.
Consider `O=C1C(O)=C(F)C(c2ccccc2F)N1c1ccc2[nH]cnc2c1` (centres unmarked) [Compound 462, 1-(1H-Benzoimidazol-5-yl)-4-fluoro-5-(2-fluoro-phenyl)-3-hydroxy-1,5-dihydro-pyrrol-2-one], for which the IC50 at hQC (read-out: IC50) worked out at 4990 nM.
With `CCCCCC(=O)C1=C(O)C(=O)N(c2ccc3[nH]cnc3c2)C1CC` (centres unmarked) [Compound 463, 1-(1H-Benzoimidazol-5-yl)-5-ethyl-4-hexanoyl-3-hydroxy-1,5-dihydro-pyrrol-2-one], at hQC (read-out: IC50), the IC50 stood at 4000 nM.
For `O=C1C(O)=C(c2cccc(O)c2)C(c2cc[nH]n2)N1c1ccc2[nH]cnc2c1` (centres unmarked) [Compound 464, 1-(1H-Benzoimidazol-5-yl)-3-hydroxy-4-(3-hydroxy-phenyl)-5-(1H-pyrazol-3-yl)-1,5-dihydro-pyrrol-2-one], on hQC (read-out: IC50), the IC50 amounted to 9850 nM.
Same read-out and setting: as for `CC(C)(C)C(=O)C1=C(O)C(=O)N(c2ccc3[nH]cnc3c2)C1` [Compound 465, 1-(1H-Benzoimidazol-5-yl)-4-(2,2-dimethyl-propionyl)-3-hydroxy-1,5-dihydro-pyrrol-2-one], the figure is 6160 nM.
In turn, `O=C(C1=C(O)C(=O)N(c2ccc3[nH]cnc3c2)C1c1cccc(F)c1F)c1ccccc1` (centres unmarked) [Compound 466, 1-(1H-benzo[d]imidazol-5-yl)-4-benzoyl-5-(2,3-difluorophenyl)-3-hydroxy-1H-pyrrol-2(5H)-one] had a Ki at hQC (setting [2]) of 3.31 nM. Also, the IC50 on hQC (read-out: IC50) was 39.8 nM.
The corresponding values for `CC1=C(O)C(=O)N(c2ccc3nc[nH]c3c2)C1c1cccc(F)c1F` (centres unmarked) [Compound 467, 1-(1H-benzo[d]imidazol-6-yl)-5-(2,3-difluorophenyl)-3-hydroxy-4-methyl-1H-pyrrol-2(5H)-one] are 11.6 nM and 52.6 nM.
The corresponding values for `CC1=C(O)C(=O)N(c2ccc3nc[nH]c3c2)C1c1c(F)ccc(F)c1Cl` (centres unmarked) [Compound 472, 1-(1H-benzo[d]imidazol-6-yl)-5-(2-chloro-3,6-difluorophenyl)-3-hydroxy-4-methyl-1H-pyrrol-2(5H)-one] are 55.8 nM and 470 nM.
For the molecule `CC1=C(O)C(=O)N(c2ccc3nc[nH]c3c2)C1c1c(F)cccc1F` (centres unmarked) [Compound 473, 1-(1H-benzo[d]imidazol-6-yl)-5-(2,6-difluorophenyl)-3-hydroxy-4-methyl-1H-pyrrol-2(5H)-one], at hQC (setting [2]), the Ki was found to be 29.2 nM. For the same molecule, the IC50 on hQC (read-out: IC50) came to 259 nM.
